Values joined by “and” are separate entries in the source; they are usually repeats but may differ in a detail not shown here. Identical values can stand only once.
Key:
[1] = Pharmacokinetics in whole blood, CD-1 mice; details: CD-1 mice, individual animals; for concentration at 0.083 hr / concentration at 0.333 h / concentration at 0.5 h / concentration at 1 h / concentration at 4 h: male, CD-1, mouse, in vivo, po, Compound 1 Whole Blood Conc.
[2] = Pharmacokinetics in whole blood, cynomolgus monkeys
Procedure: The whole blood samples (0.5 mL) were collected into syringes that were prefilled with 2.5 mL of ice-cold 0.1% formic acid in acetonitrile. The volume ratio of the whole blood to 0.1% formic acid in acetonitrile was 1/5 (v/v). Samples were frozen (-70°C) until analyzed by LC-MS/MS.
Standard curves and quality control (QC) samples were prepared fresh on the day of analysis by serial dilution of the standard mixture in quenched whole blood (1 part of blood to 5 parts of 0.1% formic acid in acetonitrile) and centrifuged. […] The frozen study samples were thawed in an ice/water bath and centrifuged. Supernatant (50 μL) from standards, QC samples, and study samples was transferred to a 96-well plate and dried completely under nitrogen. The dried residues were reconstituted with 100 μL of 0.1% formic acid in water containing internal standard (5 ng/mL of ^15N/^13C3-RE-024-02) and analyzed by LC-MS/MS.
LC-MS/MS analysis for blood pharmacokinetic samples: Samples were analyzed using an Agilent 1100 binary pump (Agilent Technologies, Santa Clara, CA, USA), connected to an AB Sciex API 6500 mass spectrometer (SCIEX, Framingham, MA, USA). An electrospray ionization source was used, scanning in the positive mode. […] The chromatography column was a Varian Metasil AQ 120–5 C18 column, 5 μm, 50 x 2.00 mm (Part No. A0530050X020) at ambient temperature, with a 0.5 mL/min flow rate and a 20 μL injection volume. Mobile phase (A) consisted of 0.1% formic acid in water; while mobile phase (B) consisted of 0.1% formic acid in acetonitrile:water (9:1, v/v).
Quantitation of in vivo samples: Peak areas were integrated using Analyst software (AB Sciex, Concord, Ontario, Canada). […] Calibration standards (at a minimum 7 per curve) were fit by linear regression with (1/x^2) weighting. QC samples were used (triplicate) at 3 concentrations for all tandem mass spectrometry (MS/MS) runs.
Pharmacokinetic calculations: PK analysis was performed using Phoenix WinNonlin®, Build 6.3.0.395 (Certara, Princeton, NJ, USA) using a non-compartmental model (PO dose = model 200 for extravascular dosing). […] Post-dose concentrations below the limit of quantitation (BLQ) were omitted from calculation.

In the case of `COC(=O)CCNC(=O)[C@@H]1OP(=O)(N[C@@H](C)C(=O)OC)OCC1(C)C` (some centres unmarked) [Compound 1], the “Compound 1 Whole Blood Conc.” value ([1]; 300 mg/kg RE-024-02 by PO, 0.167 hr, LLOQ 0.6 ng/mL, 300 mg/kg) is reported as 21.9 ng/mL and 24.1 ng/mL and 53.3 ng/mL and 17.7 ng/mL, the “Compound 1 Whole Blood Conc.” value ([1]; 300 mg/kg RE-024-02 by PO, 0.167 hr, LLOQ 1.6 nM, 300 mg/kg) is reported as 57.6 nM and 63.3 nM and 140.1 nM and 46.5 nM and the “Compound 1 Whole Blood Conc.” value ([1]; 300 mg/kg RE-024-02 by PO, 0.333 hr, LLOQ 0.6 ng/mL, 300 mg/kg) is reported as 2.4 ng/mL and 4.3 ng/mL and 3.8 ng/mL and 1.5 ng/mL. For the same compound, the “Compound 1 Whole Blood Conc.” value ([1]; 300 mg/kg RE-024-02 by PO, 0.333 hr, LLOQ 1.6 nM, 300 mg/kg) was 6.2 nM and 11.3 nM and 10 nM and 3.9 nM, the “Compound 1 Whole Blood Conc.” value ([1]; 300 mg/kg RE-024-02 by PO, 0.5 hr, LLOQ 0.6 ng/mL, 300 mg/kg) was 4.4 ng/mL and 4.5 ng/mL and 2.8 ng/mL and the “Compound 1 Whole Blood Conc.” value ([1]; 300 mg/kg RE-024-02 by PO, 0.5 hr, LLOQ 1.6 nM, 300 mg/kg) was 11.5 nM and 11.9 nM and 7.4 nM. The “Compound 1 Whole Blood Conc.” value ([1]; 300 mg/kg RE-024-02 by PO, 1 hr, LLOQ 0.6 ng/mL, 300 mg/kg) was “BQL”, the “Compound 1 Whole Blood Conc.” value ([1]; 300 mg/kg RE-024-02 by PO, 1 hr, LLOQ 1.6 nM, 300 mg/kg) was “BQL” and the “Compound 1 Whole Blood Conc.” value ([1]; 300 mg/kg RE-024-02 by PO, 2 hr, LLOQ 0.6 ng/mL) was “BQL”. The “Compound 1 Whole Blood Conc.” value ([1]; 300 mg/kg RE-024-02 by PO, 2 hr, LLOQ 1.6 nM) was “BQL”, the “Compound 1 Whole Blood Conc.” value ([1]; 300 mg/kg RE-024-02 by PO, 4 hr, LLOQ 0.6 ng/mL) was “BQL” and the “Compound 1 Whole Blood Conc.” value ([1]; 300 mg/kg RE-024-02 by PO, 4 hr, LLOQ 1.6 nM) was “BQL”. For the same compound, the “Compound 1 Whole Blood Conc.” value ([1]; 300 mg/kg RE-024-02 by PO, 8 hr, LLOQ 0.6 ng/mL) was “BQL”, the “Compound 1 Whole Blood Conc.” value ([1]; 300 mg/kg RE-024-02 by PO, 8 hr, LLOQ 1.6 nM) was “BQL” and the “Compound 1 Whole Blood Conc.” value ([1]; 700 mg/kg RE-024-02 by PO, 0.033 hr, LLOQ 0.6 ng/mL, 700 mg/kg) was 22.6 ng/mL and 66.6 ng/mL and 198 ng/mL and 119.4 ng/mL. For the same compound, the “Compound 1 Whole Blood Conc.” value ([1]; 700 mg/kg RE-024-02 by PO, 0.033 hr, LLOQ 1.6 nM, 700 mg/kg) was 59.3 nM and 175.1 nM and 520.6 nM and 313.9 nM, the “Compound 1 Whole Blood Conc.” value ([1]; 700 mg/kg RE-024-02 by PO, 0.083 hr, LLOQ 0.6 ng/mL, 700 mg/kg) was 165 ng/mL and 2.2 ng/mL and 624 ng/mL and 75 ng/mL and the “Compound 1 Whole Blood Conc.” value ([1]; 700 mg/kg RE-024-02 by PO, 0.083 hr, LLOQ 1.6 nM, 700 mg/kg) was 433.8 nM and 5.9 nM and 1640.7 nM and 197.2 nM. For the same compound, the “Compound 1 Whole Blood Conc.” value ([1]; 700 mg/kg RE-024-02 by PO, 0.167 hr, LLOQ 0.6 ng/mL, 700 mg/kg) was 636 ng/mL and 235.8 ng/mL and 165 ng/mL and 720 ng/mL, the “Compound 1 Whole Blood Conc.” value ([1]; 700 mg/kg RE-024-02 by PO, 0.167 hr, LLOQ 1.6 nM, 700 mg/kg) was 1672.2 nM and 620 nM and 433.8 nM and 1893.1 nM and the “Compound 1 Whole Blood Conc.” value ([1]; 700 mg/kg RE-024-02 by PO, 0.333 hr, LLOQ 0.6 ng/mL, 700 mg/kg) was 63.6 ng/mL. The “Compound 1 Whole Blood Conc.” value ([1]; 700 mg/kg RE-024-02 by PO, 0.333 hr, LLOQ 1.6 nM, 700 mg/kg) was 167.2 nM, the “Compound 1 Whole Blood Conc.” value ([1]; 700 mg/kg RE-024-02 by PO, 0.5 hr, LLOQ 0.6 ng/mL, 700 mg/kg) was 12 ng/mL and 41.6 ng/mL and 9.4 ng/mL and 22.9 ng/mL and the “Compound 1 Whole Blood Conc.” value ([1]; 700 mg/kg RE-024-02 by PO, 0.5 hr, LLOQ 1.6 nM, 700 mg/kg) was 31.6 nM and 109.3 nM and 24.8 nM and 60.1 nM. For the same compound, the “Compound 1 Whole Blood Conc.” value ([1]; 700 mg/kg RE-024-02 by PO, 1 hr, LLOQ 0.6 ng/mL, 700 mg/kg) was 48.8 ng/mL and 16 ng/mL and 6.1 ng/mL and 8.8 ng/mL, the “Compound 1 Whole Blood Conc.” value ([1]; 700 mg/kg RE-024-02 by PO, 1 hr, LLOQ 1.6 nM, 700 mg/kg) was 128.4 nM and 42.1 nM and 15.9 nM and 23.2 nM and the “Compound 1 Whole Blood Conc.” value ([1]; 700 mg/kg RE-024-02 by PO, 2 hr, LLOQ 0.6 ng/mL, 700 mg/kg) was 5.5 ng/mL and 4 ng/mL and 5.6 ng/mL and 10.2 ng/mL. For the same compound, the “Compound 1 Whole Blood Conc.” value ([1]; 700 mg/kg RE-024-02 by PO, 2 hr, LLOQ 1.6 nM, 700 mg/kg) was 14.6 nM and 10.4 nM and 14.8 nM and 26.8 nM, the “Compound 1 Whole Blood Conc.” value ([1]; 700 mg/kg RE-024-02 by PO, 4 hr, LLOQ 0.6 ng/mL, 700 mg/kg) was “BQL” and the “Compound 1 Whole Blood Conc.” value ([1]; 700 mg/kg RE-024-02 by PO, 4 hr, LLOQ 1.6 nM, 700 mg/kg) was “BQL”. The “Compound 1 Whole Blood Conc.” value ([1]; 700 mg/kg RE-024-02 by PO, 8 hr, LLOQ 0.6 ng/mL) was “BQL”, the “Compound 1 Whole Blood Conc.” value ([1]; 700 mg/kg RE-024-02 by PO, 8 hr, LLOQ 1.6 nM) was “BQL” and the concentration at 0.083 hr ([1]; 100 mg/kg, 100 mg/kg RE-024-02 by PO, 0.083 hr, LLOQ 0.6 ng/mL) was 1.4 ng/mL. For the same compound, the concentration at 0.083 hr ([1]; 100 mg/kg, 100 mg/kg RE-024-02 by PO, 0.083 hr, LLOQ 1.6 nM) was 3.8 nM, the concentration at 0.333 h ([1]; 100 mg/kg, 100 mg/kg RE-024-02 by PO, 0.333 hr, LLOQ 0.6 ng/mL) was 0.8 ng/mL and the concentration at 0.333 h ([1]; 100 mg/kg, 100 mg/kg RE-024-02 by PO, 0.333 hr, LLOQ 1.6 nM) was 2 nM. The concentration at 0.5 h ([1]; 300 mg/kg, 300 mg/kg RE-024-02 by PO, 0.5 hr, LLOQ 0.6 ng/mL) was 5 ng/mL, the concentration at 0.5 h ([1]; 300 mg/kg, 300 mg/kg RE-024-02 by PO, 0.5 hr, LLOQ 1.6 nM) was 13.1 nM and the concentration at 1 h ([1]; 300 mg/kg, 300 mg/kg RE-024-02 by PO, 1 hr, LLOQ 0.6 ng/mL) was 0.8 ng/mL. The concentration at 1 h ([1]; 300 mg/kg, 300 mg/kg RE-024-02 by PO, 1 hr, LLOQ 1.6 nM) was 2.1 nM, the concentration at 0.333 h ([1]; 700 mg/kg, 700 mg/kg RE-024-02 by PO, 0.333 hr, LLOQ 0.6 ng/mL) was 109 ng/mL and the concentration at 0.333 h ([1]; 700 mg/kg, 700 mg/kg RE-024-02 by PO, 0.333 hr, LLOQ 1.6 nM) was 286 nM. For the same compound, the concentration at 4 h ([1]; 700 mg/kg, 700 mg/kg RE-024-02 by PO, 4 hr, LLOQ 0.6 ng/mL) was 0.8 ng/mL, the concentration at 4 h ([1]; 700 mg/kg, 700 mg/kg RE-024-02 by PO, 4 hr, LLOQ 1.6 nM) was 2.1 nM and the “% Parent AUCAll” value ([2]; Cynomolgus monkey, 300 mg/kg PO, metabolite AUCall/Parent AUCall x 100) was 19%. It also gave a concentration at 0.083 h ([2]; cynomolgus monkey, in vivo, po, 300 mg/kg, Concentration of compound 1 in whole blood, cynomolgus monkeys, single oral 300 mg/kg fosmetpantotenate, 0.083 hr, sum of diastereomers, LLOQ 1.58 nM) of 17.2 nM, a concentration at 0.5 h ([2]; cynomolgus monkey, in vivo, po, 300 mg/kg, Concentration of compound 1 in whole blood, cynomolgus monkeys, single oral 300 mg/kg fosmetpantotenate, 0.5 hr, sum of diastereomers, LLOQ 1.58 nM) of 2480 nM and a concentration at 4 h ([2]; cynomolgus monkey, in vivo, po, 300 mg/kg, Concentration of compound 1 in whole blood, cynomolgus monkeys, single oral 300 mg/kg fosmetpantotenate, 4 hr, sum of diastereomers, LLOQ 1.58 nM) of 54.6 nM. The concentration at 8 h ([2]; cynomolgus monkey, in vivo, po, 300 mg/kg, Concentration of compound 1 in whole blood, cynomolgus monkeys, single oral 300 mg/kg fosmetpantotenate, 8 hr, sum of diastereomers, LLOQ 1.58 nM) was 7.89 nM, the “Concentration of compound 1 in whole blood” value ([2]; cynomolgus monkeys, single oral 300 mg/kg fosmetpantotenate, 0.083 hr, sum of diastereomers, LLOQ 1.58 nM, 300 mg/kg) was 11.28 nM and the “Concentration of compound 1 in whole blood” value ([2]; cynomolgus monkeys, single oral 300 mg/kg fosmetpantotenate, 0.5 hr, sum of diastereomers, LLOQ 1.58 nM, 300 mg/kg) was 3160.36 nM. For the same compound, the “Concentration of compound 1 in whole blood” value ([2]; cynomolgus monkeys, single oral 300 mg/kg fosmetpantotenate, 4 hr, sum of diastereomers, LLOQ 1.58 nM, 300 mg/kg) was 96.23 nM and the “Concentration of compound 1 in whole blood” value ([2]; cynomolgus monkeys, single oral 300 mg/kg fosmetpantotenate, 8 hr, sum of diastereomers, LLOQ 1.58 nM, 300 mg/kg) was 4.57 nM.
